For data set [1], the system named is 5-LO-dependent generation of leukotriene B4 (LTB4) from activated human whole blood. The data set can be described thus: Inhibition of LTB4 generation from LPS/FMLP-activated human whole blood. The format is cell-based. The note with it: LPS-primed, FMLP-stimulated human whole blood; read-out: Inhibitory Activity IC50, Human whole blood LTB4. As for the experimental part:
Inhibition of LTB4 generation from human whole blood: All compounds were evaluated for inhibitory activity against 5-LO-dependent generation of leukotriene B4 (LTB4) from activated human whole blood. With ethical approval from the Health Sciences Center Ethical Committee of Kuwait University, heparinized fresh human blood samples from apparently healthy individuals were obtained from the Kuwait Central Blood Bank. Aliquots of 185 μl of whole blood were dispensed into each well of 96-well culture plate containing 5 μl of the priming agent, lipopolysaccharide (LPS) at a final concentration of 1 μg/ml. […] After further incubation for 15 min at 37° C., 5 μl of N-formylmethionyl-leucyl-phenylalanine (FMLP), at […] final concentration, was added to stimulate LT production. The reaction was stopped after 15 min, and the supernatants recovered by centrifugation and stored at −40° C. pending analysis of the LTB4 content.
(§1) Assay of released leukotrienes/β-hexoseaminidase enzyme: Appropriately diluted supernatants were assayed for the released LTs (LTB4 and LTC4), by the enzyme immunoassay (EIA) method using assay kits supplied by R&D Systems (Minneapolis, Minn., USA) and following the manufacturer's instructions.

Data set [2] deals with LTC4 release from IgE/antigen-activated mouse mast cells (BMMC). The data set is described as follows: Inhibition of LTC4 release in allergen/IgE-activated bone marrow-derived mouse mast cells. To be noted: IgE/antigen (DNP-BSA)-activated BMMC, read-out: Inhibitory Activity IC50, Mouse mast cell LTC4. The format is cell-based.
Source text: Inhibition of LTC4 release and degranulation in allergen/IgE-activated bone marrow-derived mouse mast cells (BMMC): Bone marrow-derived mast cells (BMMC) were generated from pathogen-free 5-7 week old male Balb/c mice according to the method of Davis et al., [2004] (Davis, B. J., et al., (2004), Journal of Immunology, 173: 6914-6920). Essentially, bone marrow cells were obtained by flushing of the femoral bone marrow and cultured in RPMI 1640 medium supplemented with 10% FBS, 100 U/ml penicillin, and 100 μg/ml streptomycin, 25 mM HEPES, 1.0 mM sodium pyruvate, 0.1 mM nonessential amino acids, 0.0035% 2-mercaptoethanol, and 30 ng/ml mouse recombinant IL-3, with culture medium replaced every two days. Cells were used after 4-8 weeks of culture, by which time at least 97% of the cells would have differentiated into mast cells.
The generated BMMCs were seeded at 5×10^4 cells/well in a 96-well flat-bottom culture plate and passively sensitized overnight with 0.5 μg/ml anti-DNP monoclonal IgE antibody (clone SPE-7, Sigma-Aldrich, St. Louis, Mo., USA). The cells were then washed twice to remove any unbound antibody and subsequently re-suspended in reaction buffer (135 mM NaCl, 5 mM KCl, 1.8 mM CaCl2), 1 mM MgCl2, 5.6 mM glucose, 0.05% BSA and 20 mM HEPES, pH 7.4). They were then pre-incubated with the test compounds (0.01-30 μM) or the solvent (0.05% DMSO) for 15 min before being stimulated with the specific antigen, DNP-BSA (30 ng/ml). After 30 min incubation at 37° C., the amount of LTC4 released into the supernatant (as index of 5-LO activity) was determined by ELISA as described below.
as §1

Data set [3] deals with T1, recombinant human 5-LO enzyme (Homo sapiens, UniProt P09917).
T1 sequence (P09917 1-674): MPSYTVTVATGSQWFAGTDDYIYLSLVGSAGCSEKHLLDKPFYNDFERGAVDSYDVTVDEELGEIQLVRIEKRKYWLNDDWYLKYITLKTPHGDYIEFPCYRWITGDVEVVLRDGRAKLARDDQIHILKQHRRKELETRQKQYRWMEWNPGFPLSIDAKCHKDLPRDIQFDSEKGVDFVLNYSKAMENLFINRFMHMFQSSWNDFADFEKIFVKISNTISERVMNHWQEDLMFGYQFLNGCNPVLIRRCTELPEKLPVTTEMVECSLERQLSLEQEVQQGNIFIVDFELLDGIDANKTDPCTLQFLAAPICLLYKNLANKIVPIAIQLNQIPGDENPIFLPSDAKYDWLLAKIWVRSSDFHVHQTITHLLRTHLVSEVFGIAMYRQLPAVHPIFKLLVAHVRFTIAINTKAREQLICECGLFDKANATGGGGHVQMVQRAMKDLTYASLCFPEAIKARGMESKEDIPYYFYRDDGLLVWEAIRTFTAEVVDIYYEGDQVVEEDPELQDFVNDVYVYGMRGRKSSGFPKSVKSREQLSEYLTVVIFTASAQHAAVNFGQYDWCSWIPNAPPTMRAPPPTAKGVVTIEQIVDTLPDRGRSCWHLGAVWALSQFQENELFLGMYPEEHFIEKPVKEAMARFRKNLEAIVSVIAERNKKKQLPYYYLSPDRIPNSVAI
The data set is described as follows: Direct 5-LO inhibitory activity in a cell-free assay (H2DCF-DA fluorescence). The format is biochemical. As for the experimental part:
H2DCF-DA (60 μM) was first pre-cleaved by incubating with 450 mU/ml recombinant human 5-LO enzyme in Tris buffer (containing 50 mM Tris, pH=7.5, 2 mM EDTA, 2 mM CaCl2), 1 mM dithiothreitol (DTT) and 0.6 U/ml glutathione peroxidase) for 10 min at room temperature. […] After 10 min incubation at room temperature, the reaction was started with the addition of 50 μl of the substrate solution (Tris buffer containing 20 μM ATP and 20 μM arachidonic acid). After a further 20 min, the reaction was terminated with 100 μl acetonitrile. Fluorescence was read at 500 nm excitation and 520 emission, with Novostar® microplate reader (BMG Labtech, Offenburg, Germany). Appropriate controls, including 100 μM nordihydroguaiaretic acid (NDGA), were included to isolate only the 5-LO-attributable, NDGA-inhibitable RFU values.

Data set [4] concerns LTC4 release from isolated human monocytes. The data set is described as follows: Inhibition of LTC4 release from isolated human monocytes (A23187-stimulated). It is filed as cell-based. The note with it: read-out: Inhibitory Activity IC50, Human monocyte LTC4. As for the experimental part: Inhibition of LTC4 release from isolated human monocytes: Mononuclear cells were first isolated from heparinized fresh blood using the Ficoll-Hypaque gradient centrifugation method. Monocytes were subsequently purified by adherence to plastic according to standard protocols. The purity of the adherent monocytes (CD14+) was routinely confirmed by flow cytometry to be >95% and viability (by trypan blue exclusion method) was routinely >97%. Adherent monocytes were then washed and incubated in 190 μl culture medium RPMI-1640 supplemented with 100 U/ml penicillin, 100 μg/ml streptomycin and 10% heat-inactivated fetal bovine serum (Sigma-Aldrich, St Louis, Mo., USA). […] After a further incubation for 15 min, the culture supernatants were recovered by centrifugation and stored at −40° C. pending LTC4 determination.
as §1

Where [5] appears, read: cell-free, recombinant human 5-LO, read-out: Inhibitory Activity IC50, Human recomb. 5-LO.

Consider twelve compounds from patent US11608320B2, “Oxazolidinone hydroxamic acid derivatives” (KUWAIT UNIVERSITY, priority 2020, dated 2023).

Where two headings read alike, the source gives them in different places. Some results are limits rather than exact numbers.

With `CC(=O)N(O)C[C@H]1CN(c2ccc(N3CCOCC3)c(F)c2)C(=O)O1` [PH-23], the IC50 in data set [1] was 3.3 µM; in data set [2] (Mus musculus) it was 20.7 µM; in data set [3] it was greater than 30 µM; in data set [4] (Monocyte), 18.7 µM.
With `CCC(=O)N(O)C[C@H]1CN(c2ccc(N3CCOCC3)c(F)c2)C(=O)O1` [PH-199], the IC50 in data set [1] came to 1.4 µM; in data set [2] (Mus musculus), 6.3 µM; in data set [3] it was 11.8 µM; in data set [4] (Monocyte), 8.2 µM.
For the compound `CC(C)C(=O)ON(C[C@H]1CN(c2ccc(N3CCOCC3)c(F)c2)C(=O)O1)C(=O)C(C)C` [PH-204], the IC50 in data set [1] was 10.7 µM; in data set [2] (Mus musculus) it was 21.8 µM; in data set [3] (setting [5]) it was greater than 30 µM; in data set [4] (Monocyte) it was greater than 50 µM.
Take `CC(C)C(=O)N(O)C[C@H]1CN(c2ccc(N3CCOCC3)c(F)c2)C(=O)O1` [PH-205]: the IC50 in data set [1] is 2.3 µM; in data set [2] (Mus musculus), 13.8 µM; in data set [3] it was 3.9 µM; in data set [4] (Monocyte), 14.1 µM.
Turning to `O=C(ON(C[C@H]1CN(c2ccc(N3CCOCC3)c(F)c2)C(=O)O1)C(=O)C1CC1)C1CC1` [PH-206], the IC50 in data set [1] is 7.9 µM; in data set [2] (Mus musculus), 37.3 µM; in data set [3] (setting [5]) it was greater than 30 µM; in data set [4] (Monocyte), greater than 50 µM.
In the case of `O=C(C1CC1)N(O)C[C@H]1CN(c2ccc(N3CCOCC3)c(F)c2)C(=O)O1` [PH-211], the IC50 stood at 1.3 µM in data set [1], 8.7 µM in data set [2] (Mus musculus), 3.5 µM in data set [3] and 7.5 µM in data set [4] (Monocyte).
On to `NC(=O)N(O)C[C@H]1CN(c2ccc(N3CCOCC3)c(F)c2)C(=O)O1` [PH-238, (R)-1-((3-(3-fluoro-4-morpholinophenyl)-2-oxooxazolidin-5-yl)methyl)-1-hydroxyurea], for which the melting point fell in the range of 125 to 128 °C. In addition, the IC50 in data set [1] was found to be 7.9 µM. Besides, in data set [2] (Mus musculus), the IC50 was 23.8 µM. Further, the IC50 in data set [3] (setting [5]) is 14.7 µM. The IC50 in data set [4] (Monocyte) was 30.7 µM.
`CC(C)CC(=O)N(O)C[C@H]1CN(c2ccc(N3CCOCC3)c(F)c2)C(=O)O1` [PH-239, (R)—N-((3-(3-fluoro-4-morpholinophenyl)-2-oxooxazolidin-5-yl)methyl)-N-hydroxy-3-methylbutanamide]: the melting point was 122 to 124.5 °C. The IC50 in data set [3] (setting [5]) was found to be 4.7 µM.
Compound `CCCCC(=O)N(O)C[C@H]1CN(c2ccc(N3CCOCC3)c(F)c2)C(=O)O1` [PH-241, (R)—N-((3-(3-fluoro-4-morpholinophenyl)-2-oxooxazolidin-5-yl)methyl)-N-hydroxypentanamide] returned a melting point of 121 to 122.5 °C. The IC50 in data set [3] (setting [5]) came out at 3.3 µM.
Take `O=C(C1CCCC1)N(O)C[C@H]1CN(c2ccc(N3CCOCC3)c(F)c2)C(=O)O1` [PH-244, (R)—N-((3-(3-fluoro-4-morpholinophenyl)-2-oxooxazolidin-5-yl)methyl)-N-hydroxycyclopentane-carboxamide]: the melting point was in the range of 164.5 to 166.5 °C.
As for `O=C(C1CCC1)N(O)C[C@H]1CN(c2ccc(N3CCOCC3)c(F)c2)C(=O)O1` [PH-245, (R)—N-((3-(3-fluoro-4-morpholinophenyl)-2-oxooxazolidin-5-yl)methyl)-N-hydroxycyclobutane-carboxamide], the melting point lay in the range of 132 to 133.5 °C.
`CCCCCC(=O)ON(C[C@H]1CN(c2ccc(N3CCOCC3)c(F)c2)C(=O)O1)C(=O)CCCCC` [PH-246]: the IC50 stood at 1.5 µM in data set [1], 3.3 µM in data set [2], 21.6 µM in data set [3] (setting [5]) and 7.1 µM in data set [4].
